Experimental data as given in PubChem BioAssay (NCI).
Several values for one entry are separate records, joined by “and”; a condition that tells them apart may be missing. Identical values can stand only once.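 Interpolation was linear, between the two tested concentrations surrounding the appropriate level; five concentrations were tested over 48 hours in 96-well plates. Here, GI50 denotes the concentration required for 50% inhibition of growth. The concentration for full growth arrest is given as TGI.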

Columns and labels:
Assay in all cases: inhibition of tumour cell growth, NCI panel, 48 h
SF-295 CNS = system: SF-295 CNS
A498 renal = system: A498 renal
K-562 leukemia = system: K-562 leukemia
BT-549 breast = system: BT-549 breast
MDA-MB-231 breast = system: MDA-MB-231 breast
HL-60(TB) leukemia = system: HL-60(TB) leukemia
LOX IMVI melanoma = system: LOX IMVI melanoma
PC-3 prostate = system: PC-3 prostate
HT29 colon = system: HT29 colon
MALME-3M melanoma = system: MALME-3M melanoma

Compound | TGI (SF-295 CNS) | TGI (A498 renal) [µM] | TGI (K-562 leukemia) [µM] | TGI (BT-549 breast) [µM] | TGI (MDA-MB-231 breast) | TGI (HL-60(TB) leukemia) [µM] | TGI (LOX IMVI melanoma) [µM] | TGI (PC-3 prostate) | TGI (HT29 colon) [µM] | TGI (MALME-3M melanoma) | GI50 (SF-295 CNS) [nM] | GI50 (A498 renal) [µM] | GI50 (K-562 leukemia) [µM] | GI50 (BT-549 breast) [µM] | GI50 (MDA-MB-231 breast) [µM] | GI50 (HL-60(TB) leukemia) [nM] | GI50 (LOX IMVI melanoma) [µM] | GI50 (PC-3 prostate) [nM] | GI50 (HT29 colon) [µM] | GI50 (MALME-3M melanoma) [µM]
Cc1ccc2[nH]c(O)c(N=Nc3ccccc3[N+](=O)[O-])c2c1 | > 58.8 µM | 34.6 | > 100 | > 94.3 | 6.03 µM | > 100 | > 100 | > 100 µM | > 100 | 7.9 µM | – | – | – | – | – | – | – | – | – | –
COc1ccc(C2CC(c3ccc(OC)cc3O)=NN2c2ccc(S(N)(=O)=O)cc2)cc1 (centres undefined) | > 100 µM | 80.2 | > 100 | 57.2 | > 100 µM | 47.9 | > 100 | > 100 µM | > 100 | > 100 µM | 29400 | 13.1 | 5.71 | 13.5 | 15.3 | 11900 | 14.1 | 4290 | 11.1 | 20.2
Cc1ccc2[nH]c(C(=O)NN3C(=O)C(C)SC34CCC(C)CC4)c(-c3ccccc3)c2c1 (centres undefined) | 32.9 µM | 35 | 61.9 | 36.3 | 31.6 µM | – | 34.8 | 46 µM | 29.3 | 33.4 µM | 14300 | 17.2 | 16.2 | 19.4 | 15.4 | – | 18 | 13800 | 13.1 | 17
COc1ccccc1NC(=O)CC(=O)n1nc(C)c(N=Nc2ccccc2Cl)c1C | > 100 µM | > 100 | > 100 | > 100 | > 100 µM | > 100 | > 100 | > 100 µM | > 100 | > 100 µM | – | – | – | – | – | – | – | – | – | –
CC[C@]12C=CCN3CC[C@@]4(c5ccc(OC)cc5N(C)[C@H]4[C@@](O)(C(=O)OC)[C@@H]1OC(=O)CCC(=O)O[C@H]1CC[C@H]4[C@@H]5CC[C@H]6CC(=O)CC[C@]6(C)[C@H]5CC[C@]14C)[C@@H]32 | > 100 µM | 30.8 | – | > 100 | 11.3 µM | 5.36 | 11.7 | > 100 µM | 6.06 | 57.7 µM | 2020 | 4.13 | – | 2.21 | 3.03 | 2120 | 2.83 | 703 | 2.13 | 2.98
CCN(CC)CCn1c(=O)c2cc(OC)c(OC)cc2c2ccc3cc4c(cc3c21)OCO4 | 2.54 µM | 0.655 | – | 17.2 | 3.66 µM | 3.16 | 0.584 | 99.7 µM | 6.16 | 14.5 µM | 90.7 | 0.15 | 0.536 | 0.456 | 1.29 | 721 | 0.139 | 799 | 0.195 | 0.354
CC1(C)N=c2cc3c(cc2N1c1ccc(Cl)cc1)=Nc1ccccc1N3c1ccc(Cl)cc1 | 28.5 µM | > 100 | 4.95 | 60.8 | > 100 µM | 4.2 | 24.8 | > 100 µM | > 100 | > 100 µM | 2080 | 8.37 | 1.68 | 3.5 | 59.7 | 1740 | 5.44 | 2450 | 7.85 | 4.79
CCOC(=O)Nc1ccc2c(c1)C(=O)N(CC)c1ccccc1O2 | 0.79 µM | 11.8 | > 100 | 16.9 | > 100 µM | 0.155 | > 100 | > 100 µM | > 39.6 | > 100 µM | 84.6 | 0.0786 | 0.0484 | 0.184 | 0.4 | 54.5 | 0.198 | 121 | 0.0791 | 31.8
COc1c(C)c(OC)c(C(=O)CC(C)C)c(OC)c1C | > 100 µM | > 100 | – | > 100 | > 100 µM | 50.5 | > 100 | > 100 µM | > 100 | > 100 µM | – | – | – | – | – | – | – | – | – | –
O=c1cc(-c2ccccc2)oc2c1ccc1ccccc12 | – | 44.1 | > 100 | 55.8 | 67.9 µM | 56.8 | > 100 | > 100 µM | > 100 | 72.1 µM | – | 11.1 | 49.5 | 21 | 12.5 | 23900 | 21.9 | 23100 | 25.6 | 29.1
CC(=O)Nc1ccc(OC(C)=O)cc1 | 12.4 µM | 0.0488 | > 57.2 | 0.165 | 2.04 µM | < 0.01 | 4.14 | > 66.3 µM | 0.776 | 24.5 µM | < 10 | < 0.01 | < 0.01 | < 0.01 | < 0.01 | < 10 | < 0.01 | < 10 | < 0.01 | 0.668
COc1cc2c(c(OC)c1OC)-c1c(c3ccc([N+](=O)[O-])cc3c(=O)n1CCCBr)C2=O | > 100 µM | > 100 | > 100 | 97.5 | > 100 µM | – | > 100 | > 100 µM | > 100 | 47.6 µM | 24200 | > 100 | 38.8 | 35.8 | 31.3 | – | 31.9 | 26300 | > 100 | 11.4
CC1(C)CCc2c(c(N=Nc3ccccc3F)c3ccccc3c2O)O1 | 44 µM | > 100 | > 100 | > 100 | 37.9 µM | > 100 | 40.9 | > 100 µM | – | > 100 µM | 17800 | 25.9 | > 100 | 33.5 | 17.6 | > 100000 | 20.9 | 59800 | – | 34.5
CN[C@@H](Cc1cccc2ccccc12)C(=O)N[C@@H](CC(C)C)B(O)O | 0.0828 µM and 0.0156 µM | 0.0452 | 0.0952 | 0.0243 | 0.0446 µM and < 0.0145 µM | – | 0.0324 | 0.154 µM and 0.031 µM | 0.025 | 0.0336 µM and 0.0214 µM | 23.1 | 0.00553 | 0.0228 | – | 0.0201 | – | 0.0135 | 39.1 | – | 0.0121
